#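 Five concentrations, 48 hours, 96-well plates. The concentration for full growth arrest is given as TGI.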
# Experiments:
# Assay in all cases: DTP human tumour cell line panel, 48 h
# MOLT-4 leukemia = test system: MOLT-4 leukemia
# MDA-N = test system: MDA-N
# MDA-MB-435 = test system: MDA-MB-435
# A549 NSCLC = test system: A549 NSCLC
# OVCAR-5 ovarian = test system: OVCAR-5 ovarian
# RXF 393 renal = test system: RXF 393 renal
# SW-620 colon = test system: SW-620 colon
# OVCAR-3 ovarian = test system: OVCAR-3 ovarian
# NCI-H460 lung = test system: NCI-H460 lung
# HCT-15 colon = test system: HCT-15 colon
# SR leukemia = test system: SR leukemia
# SNB-19 CNS = test system: SNB-19 CNS
# U251 CNS = test system: U251 CNS
# TK-10 renal = test system: TK-10 renal
# COLO 205 colon = test system: COLO 205 colon
SMILES,TGI (MOLT-4 leukemia) [µM],TGI (MDA-N) [µM],TGI (MDA-MB-435) [µM],TGI (A549 NSCLC) [µM],TGI (OVCAR-5 ovarian) [µM],TGI (RXF 393 renal) [µM],TGI (SW-620 colon) [µM],TGI (OVCAR-3 ovarian) [µM],TGI (NCI-H460 lung) [µM],TGI (HCT-15 colon) [µM],TGI (SR leukemia) [µM],TGI (SNB-19 CNS) [µM],TGI (U251 CNS) [µM],TGI (TK-10 renal) [µM],TGI (COLO 205 colon) [µM]
CSc1c(C#N)c(S)[nH]c(=O)c1C#N,> 100,> 100,> 100,> 100,> 100,> 100,> 100,> 100,> 100,> 100,> 100,> 100,> 100,> 100,> 100
CCCCCCCCC/C=C1/CC(CO)(COC(=O)c2ccccc2)OC1=O (stereo not given),29.9,20.6,23.3,26.7,24.6,31,27.4,31.2,22,29.8,54,29.1,27.1,22.7,11.8
CC1(C)C2CCC(O)(C2)C1N (stereo not given),> 100,> 100,> 100,> 100,> 100,> 100,> 100,> 100,> 100,> 100,> 100,> 100,> 100,> 100,> 100
c1ccc([P+](CCCCCC[P+](c2ccccc2)(c2ccccc2)c2ccccc2)(c2ccccc2)c2ccccc2)cc1,> 100,54.9,72.9,> 100,> 100,> 100,> 100,> 100,> 100,> 100,> 100,> 100,> 100,> 100,13.8
NC(Cc1ccc(B(O)O)cc1)C(=O)NC(CO)CO (stereo not given),> 100,> 100,> 100,> 100,> 100,> 100,> 100,> 100,> 100,> 100,> 100,> 100,> 100,> 100,> 100
COc1cc(/C=N/NC2=NCCCCN2)ccc1O,> 100,> 100,> 100,> 100,> 100,> 100,> 100,> 100,> 100,> 100,> 100,> 100,> 100,> 100,> 100
O=C1O/C(=C\c2ccc(O)cc2)C(c2ccc(O)c(Cl)c2)=C1Cl,> 100,68,81.7,> 100,> 100,73,> 100,> 100,> 100,> 100,> 100,> 100,> 100,> 100,> 100
O=c1c2c(F)c(F)c(F)c(F)c2sc2nccn12,9.62,29.4,28.6,36.7,36.3,32,33,29.8,27.3,29,18.7,35.9,29.2,32.8,32.7
O=C1C(S(=O)(=O)c2ccccc2)=C(CS(=O)(=O)c2ccccc2)[C@@H](OCc2ccccc2)[C@@H]1OCc1ccccc1,46.7,88.7,92.7,> 100,75.4,27.8,36.4,27.5,50.5,44,33.5,> 100,53.3,> 100,61.3
CC1C(c2ccccc2O)c2cc3c(cc2OC1N1CCOCC1)OCO3 (stereo not given),83.7,> 100,82.8,80.7,> 100,48.9,> 100,60.6,49.2,> 100,29.5,> 100,64.7,97.6,46.6
COC1CC(O[C@H]2CC[C@@]3(C)[C@@H](CC[C@]4(O)[C@@H]3CC[C@]3(C)[C@@H](C(C)=O)[C@H](OC(=O)CC(C)C)[C@@H](OC(=O)c5ccccc5)[C@@]34O)C2)OC(C)C1OC1CC(OC)C(OC2OC(C)C(O)C(OC)C2O)C(C)O1 (stereo not given in full),22.4,> 25,> 25,> 25,> 25,> 25,> 25,> 25,> 25,> 25,> 25,> 25,> 25,> 25,12.4
CCOC(=O)C(CCc1ncnc2c1ncn2Cc1ccccc1)(CCc1ncnc2c1ncn2Cc1ccccc1)C(=O)OCC,> 100,> 100,> 100,> 100,> 100,> 100,> 100,> 100,> 100,> 100,> 100,> 100,> 100,> 100,> 100
COC(=O)/C(C#N)=C(\N)c1c(C)c2ccccc2oc1=N,> 100,> 100,> 100,> 100,> 100,> 100,> 100,> 100,> 100,> 100,> 100,> 100,> 100,> 100,> 100
Cc1cc2nc(N3C(=O)/C(=C/c4ccc(N(C)C)cc4)N=C3c3ccccc3)sc2cc1C,49.8,33.8,51,> 100,84.2,57.9,> 100,> 100,> 100,> 100,41.3,> 100,> 100,> 100,40.7
C=CC1(C)OC2(CCN(C(=O)OCC)CC2)OC1C (stereo not given),> 100,> 100,> 100,> 100,> 100,> 100,> 100,> 100,> 100,> 100,> 100,> 100,> 100,> 100,> 100

# — PubChem BioAssay (NCI)
